# Measurements published in EP0987025A1, “Pharmaceitical composition or composition package containing a pyrimidine nucleoside analogue and a purine nucleoside analogue” (priority 1998, dated 2000).
# Read-outs that look alike come from different tables or passages of the source.
# What was measured:
# LP-BM5 = type: in vivo, C57BL/6 mice; settings: at 10 weeks after infection
# Text: LP-BM5 virus was provided by Robert Yetter (Veternas Administration Hospital, Baltimore, MD) and was maintained in a persistently infected SC- 1 cell line as described (Hosier D.E., Yetter R.A., Morse H.C. III, "Functional T lymphocytes are required for a murine retrovirus induced immunodeficiency disease (MAIDS)", J. Exp. Med. 1987; 165:1737-42). C57BL/6 female mice were purchased from Nossan, Milan, Italy and were used at 5 weeks of age. Animals were infected by means of two successive intraperitoneal injections at 24-hr intervals. In the experiments reported three different virus preparations were used.
# Mice were housed at 22±1°C with a 12-hr light-dark cycle, 60±5% humidity, and 12 air changes/hr.
# First, the efficacy of 2-fluoro-ara-AMP (F-araAMP, Fludara) in inhibiting murine AIDS (MAIDS), a disease characterized by a lymphoproliferative disorder (lymphadenopathy and splenomegaly), associated with severe immunodeficiency and hypergammaglobulinemia, was evaluated. The disease develops in some strains of mice (C57BL/6) that are infected with a murine leukemia virus mixture termed LP-BM5. In the first preliminary experiments (after about 4 months from infection) LP-BMS infected animals were treated with three different concentrations of F-ara-AMP: 0.065 mg/mouse, 0.325 mg/mouse, 0.650 mg/mouse. The animals of each group were treated intraperitoneally for 3 days a week and for 3 weeks. At the end of the treatment animals were killed and splenomegaly, lymphadenopathy and hypergammaglobulinemia were evaluated.
# Infected mice after 7 weeks from infection were treated intraperitoneally with Fludara as follows: • 1. 0.65 mg/mouse once a day for 4 days a week (total dose 7.8 mg/mouse); • 2. 0.65 mg/mouse twice a day for 5 days a week (total dose 19.5 mg/mouse); • 3. […]
# BM5d proviral DNA = assay: PCR analysis of BM5d proviral DNA in spleen, lymph node and bone marrow; type: in vivo, C57BL/6 mice; settings: at 10 weeks after infection
# Text: The following oligonucleotide primers were used for the amplification of a 141-bp gag gene of defective virus genome (BM5d); 5' primer, 5'-AACCTTCCTCCTCTGCCA-3' (sense) corresponding to nucleotides 1456-1473 and 3' primer, 5'-ACCACCTCTCGGGCTTTC-3' (antisense) corresponding to nucleotides 1579-1596 of the BM5d genome (Chat topadhyay SK, Sengupta D.N., FredricksonT.N., Morse H.C. III, Hartley J.W., "Characteristics and contributions of defective, ecotropic and mink cell focus-inducing viruses in a retrovirus induced immunodeficiency syndrome of mice.", J..Virol. 1991; 65: 4232-41.). A second pair or oligonucleotide primers was used for amplification of 203-bp of the mouse glucose-6-phosphate dehydrogenase (G6PD) gene. This amplification served as an internal control (endogenous standard) for evaluation of the relative BM5d proviral DNA. The nucleotide primers for the amplification were as follows: 5' primer, 5'-[…]-3' (sense) and 3' primer, 5'-[…]-3' (antisense) (Kurdi-Haidar B., Mason P.J., Berrebi A., et al., "Origin and spread of the glucose-6-phosphate dehydrogenase variant (G6PD-Mediterranean) in the Middle East.", Am. J. Hum. Genet. 1990; 47:1013-19.).
# Probe D30, which was derived from the 137-bp Smal-Xhol p12 gag fragment of the defective virus genome (DU5H), was kindly provided by P. Jolicoeur (Montreal, Canada) (Aziz D.C., Hanna Z., Jolicoeur P., "Severe immunodeficiency disease induced by a defective murine leukemia virus.", Nature 1989; 338: 505-08).
# Total cellular DNA was isolated from the spleens, lymph nodes and bone marrow of uninfected, infected and infected/treated mice by the sodium iodide isopropanol method.
# PCR amplifications were performed in a 25 µl final volume using the Perkin Elmer GeneAMP kit (1 mM MgCl2, 2.5 U AmpliTag) with 0.3 µg total cellular DNA and 20 pmol of each primer.
# PCR reaction were carried out for 37 cycles at 95°C for 30 sec, 58°C for 30 sec and 72°C for 30 sec with a final extension at 72°C for 10 min.
# Products were analyzed by electrophoresis on agarose gel, blotted and hybridized with either the ^32P-labeled D30 or G6PD probe.
# The intensity of radiolabeled bands was analyzed and quantified in a GS-250 Molecular Imager™ (Bio-Rad, Hercules, CA, USA). For BM5d proviral DNA detection the relative integration was determined by dividing the intensity of the BM5d bands by the intensity of G6PD bands (Fraternale A., Casabianca A., Rossi L., et al., "Inhibition of murine AIDS by combination of AZT and dideoxycytidine 5'-triphosphate.", J. Acquir. Imm. Def Syndr. and Hum. Retrovir. 1996; 12:164-73). The percentages of inhibition were referred to the infected mice.
# [1] = Stability in drinking water; type: physicochemical; settings: 0.25 mg/ml, room temperature, changed every 3 days
# Description: AZT (Sigma) was administered ad libitum in the drinking water at a concentration of 0.25 mg/ml. AZT was stable in the drinking water at room temperature and was changed every 3 days.
# [2] = treatment a: AZT 250 mg/l in drinking water for 6 weeks
# [3] = treatment b: AZT 250 mg/l in drinking water for 10 weeks
smiles,measurement,setting,value
"Cc1cn([C@H]2C[C@H](N=[N+]=[N-])[C@@H](CO)O2)c(=O)[nH]c1=O [AZT, 3'-Azido-3'-desoxythymidin]",Lymph node w.,LP-BM5; [2],1.060 ± 0.240 g
same,Spleen w.,LP-BM5; [2],0.520 ± 0.070 g
same,Lymph node w.,LP-BM5; [3],0.550 ± 0.330 g
same,Spleen w.,LP-BM5; [3],0.580 ± 0.150 g
same,"bone marrow, BM5d proviral DNA copy number (E)",BM5d proviral DNA; [2],"28,500±3,535 Proviral DNA molecules per 0.3 µg of total cellular DNA"
same,"bone marrow, inhibition of BM5d (% vs. Infected) (F)",BM5d proviral DNA; [2],4.135±5.847%
same,"lymph node, BM5d proviral DNA copy number (C)",BM5d proviral DNA; [2],"30,966±7,169 Proviral DNA molecules per 0.3 µg of total cellular DNA"
same,"lymph node, inhibition of BM5d (% vs. Infected) (D)",BM5d proviral DNA; [2],85.89±3.26 %
same,"spleen, BM5d proviral DNA copy number (A)",BM5d proviral DNA; [2],"135,000±20,000 Proviral DNA molecules per 0.3 µg of total cellular DNA"
same,"spleen, inhibition of BM5d (% vs. Infected) (B)",BM5d proviral DNA; [2],15.14±9.60%
same,"bone marrow, BM5d proviral DNA copy number (E)",BM5d proviral DNA; [3],"13,761±8,766 Proviral DNA molecules per 0.3 µg of total cellular DNA"
same,"bone marrow, inhibition of BM5d (% vs. Infected) (F)",BM5d proviral DNA; [3],51.51±30.83 %
same,"spleen, BM5d proviral DNA copy number (A)",BM5d proviral DNA; [3],"39,669±19,026 Proviral DNA molecules per 0.3 µg of total cellular DNA"
same,"spleen, inhibition of BM5d (% vs. Infected) (B)",BM5d proviral DNA; [3],73.30±12.53 %
same,stability in the drinking water,[1],stable
